In US9889115B2, “Fitness assay and associated methods” (priority 1998, dated 2018):

Columns and labels:
[1] = system: wild-type HIV; experiment: wild-type antiretroviral activity (Table 4); details: Human immunodeficiency virus 1, read-out: ID50
[2] = system: HIV-1LAI; experiment: PHA-PBMC assay, p24 Gag protein production; type: cell-based; details: HIV-1LAI
[3] = system: HIV-1BAL; experiment: PHA-PBMC assay, p24 Gag protein production; type: cell-based
[4] = target: T1, wild-type HIV-1 (WT) protease (Human immunodeficiency virus type 1 group M subtype B, UniProt P04585); experiment: continuous fluorogenic HIV protease assay; type: biochemical; details: WT (Table 7)
T1 construct: the proteases of wild-type HIV-1 (WT)
Procedure: This example describes the protocol for the sensitive continuous fluorogenic assay for HIV protease of the present invention and its application. […] The inhibition constant for wild-type HIV-1, Kimnt/Kiwt ratio, and vitality were measured.
The reaction was initiated by the addition of 5 μl of substrate stock solution in water. […] The initial rate of hydrolysis was calculated by second degree polynomial fit using SLM AB2 2.0 operating software.
For inhibition studies, inhibitors were prepared as stock solutions at different concentrations in dimethylsulfoxide. […] The reaction was initiated by the addition of 5 μl of substrate stock solution in water. For data analysis, the mathematical model for tight-binding inhibitors was used.

[5] = system: HIV-1LAI; experiment: MT-2 cells, MTT assay; type: cell-based; details: HIV-1LAI; MT-2/MTT, day 7
Procedure: All drug sensitivities were performed in triplicate. […] The IC50's were determined using the MTT assay on day 7 of culture. All sensitivities were determined in […].

[6] = system: multidrug-resistant HIV-1 clinical isolate, patient 3; experiment: PHA-PBMC assay, p24 Gag protein production; type: cell-based; details: Human immunodeficiency virus 1; Patient/Isolate code 3; PHA-PBMC, p24
Procedure: (§1) The patient profiles are shown below in Table 2.
(§2) To determine protease inhibitory activity against multidrug resistant HIV, the IC50's were measured against a panel of clinically isolated mutant HIV isolates.
(§3) All drug sensitivities were performed in triplicate. In order to determine whether the HIV isolates were syncitium inducing (SI) or non-syncitium inducing (NSI), an aliquot of viral stock supernatant, containing 100 TCID50, was cultured with 1×10^5 MT-2 cells in a 12-well plate. Cultures were maintained for four weeks and were examined for syncytium formation twice a week.

[7] = system: HIV-1ERS104pre; experiment: PHA-PBMC assay, p24 Gag protein production; type: cell-based; details: Human immunodeficiency virus 1; HIV-1ERS104pre, SI; PHA-PBMC, p24
Procedure: as §1, §2, §3

[8] = system: multidrug-resistant HIV-1 clinical isolate, patient 1; experiment: PHA-PBMC assay, p24 Gag protein production; type: cell-based; details: Human immunodeficiency virus 1; Patient/Isolate code 1; PHA-PBMC, p24
Procedure: as §1, §2, §3

[9] = system: multidrug-resistant HIV-1 clinical isolate, patient 7; experiment: PHA-PBMC assay, p24 Gag protein production; type: cell-based; details: Human immunodeficiency virus 1; Patient/Isolate code 7; PHA-PBMC, p24
Procedure: as §1, §2, §3

[10] = system: multidrug-resistant HIV-1 clinical isolate, patient 2; experiment: PHA-PBMC assay, p24 Gag protein production; type: cell-based; details: Human immunodeficiency virus 1; Patient/Isolate code 2; PHA-PBMC, p24
Procedure: as §1, §2, §3

[11] = system: multidrug-resistant HIV-1 clinical isolate, patient 4; experiment: PHA-PBMC assay, p24 Gag protein production; type: cell-based; details: Human immunodeficiency virus 1; Patient/Isolate code 4; PHA-PBMC, p24
Procedure: as §1, §2, §3

[12] = system: multidrug-resistant HIV-1 clinical isolate, patient 6; experiment: PHA-PBMC assay, p24 Gag protein production; type: cell-based; details: Human immunodeficiency virus 1; Patient/Isolate code 6; PHA-PBMC, p24
Procedure: as §1, §2, §3

[13] = system: multidrug-resistant HIV-1 clinical isolate, patient 8; experiment: PHA-PBMC assay, p24 Gag protein production; type: cell-based; details: Human immunodeficiency virus 1; Patient/Isolate code 8; PHA-PBMC, p24
Procedure: as §1, §2, §3

[14] = system: multidrug-resistant HIV-1 clinical isolate, patient 5; experiment: PHA-PBMC assay, p24 Gag protein production; type: cell-based; details: Human immunodeficiency virus 1; Patient/Isolate code 5; PHA-PBMC, p24
Procedure: as §1, §2, §3

[15] = system: wild-type HIV-1 (WT); experiment: IC50 against wild-type HIV-1 (Table 9a); type: cell-based; details: Human immunodeficiency virus 1; (WT)
[16] = system: multidrug-resistant HIV-1 clinical isolate, patient 22; experiment: IC50 against multidrug-resistant clinical isolates (Table 9a); type: cell-based; details: Human immunodeficiency virus 1
Procedure: (§4) The mutant multidrug-resistant HIV-1 strains corresponding to each patient, numbered 9-35, were genetically analyzed in terms of the nucleic acid sequences of the protease (PR) and a portion of the reverse transcriptase (RT) genes from which mutations in these enzymes were determined. The mutations in the protease and reverse transcriptase of the multidrug-resistant viruses isolated from each patient are shown below in Table 9b.

[17] = system: multidrug-resistant HIV-1 clinical isolate, patient 34; experiment: as above; type: cell-based; details: Human immunodeficiency virus 1
Procedure: as §4

[18] = system: multidrug-resistant HIV-1 clinical isolate, patient 31; experiment: microbe, parasite or virus in culture; type: cell-based; details: Human immunodeficiency virus 1; Patient Isolate 31
Procedure: as §4

[19] = system: multidrug-resistant HIV-1 clinical isolate, patient 19; experiment: microbe, parasite or virus in culture; type: cell-based; details: Human immunodeficiency virus 1; Patient Isolate 19
Procedure: as §4

[20] = system: multidrug-resistant HIV-1 clinical isolate, patient 9; experiment: microbe, parasite or virus in culture; type: cell-based; details: Human immunodeficiency virus 1; Patient Isolate 9
Procedure: as §4

[21] = system: multidrug-resistant HIV-1 clinical isolate, patient 13; experiment: microbe, parasite or virus in culture; type: cell-based; details: Human immunodeficiency virus 1; Patient Isolate 13
Procedure: as §4

[22] = system: multidrug-resistant HIV-1 clinical isolate, patient 10; experiment: microbe, parasite or virus in culture; type: cell-based; details: Human immunodeficiency virus 1; Patient Isolate 10
Procedure: as §4

[23] = system: multidrug-resistant HIV-1 clinical isolate, patient 32; experiment: microbe, parasite or virus in culture; type: cell-based; details: Human immunodeficiency virus 1; Patient Isolate 32
Procedure: as §4

[24] = system: multidrug-resistant HIV-1 clinical isolate, patient 33; experiment: microbe, parasite or virus in culture; type: cell-based; details: Human immunodeficiency virus 1; Patient Isolate 33
Procedure: as §4

[25] = system: multidrug-resistant HIV-1 clinical isolate, patient 23; experiment: microbe, parasite or virus in culture; type: cell-based; details: Human immunodeficiency virus 1; Patient Isolate 23
Procedure: as §4

[26] = system: multidrug-resistant HIV-1 clinical isolate, patient 27; experiment: microbe, parasite or virus in culture; type: cell-based; details: Human immunodeficiency virus 1; Patient Isolate 27
Procedure: as §4

[27] = system: multidrug-resistant HIV-1 clinical isolate, patient 11; experiment: microbe, parasite or virus in culture; type: cell-based; details: Human immunodeficiency virus 1; Patient Isolate 11
Procedure: as §4

[28] = system: multidrug-resistant HIV-1 clinical isolate, patient 16; experiment: microbe, parasite or virus in culture; type: cell-based; details: Human immunodeficiency virus 1; Patient Isolate 16
Procedure: as §4

[29] = system: multidrug-resistant HIV-1 clinical isolate, patient 15; experiment: microbe, parasite or virus in culture; type: cell-based; details: Human immunodeficiency virus 1; Patient Isolate 15
Procedure: as §4

[30] = system: multidrug-resistant HIV-1 clinical isolate, patient 20; experiment: microbe, parasite or virus in culture; type: cell-based; details: Human immunodeficiency virus 1; Patient Isolate 20
Procedure: as §4

[31] = system: multidrug-resistant HIV-1 clinical isolate, patient 28; experiment: microbe, parasite or virus in culture; type: cell-based; details: Human immunodeficiency virus 1; Patient Isolate 28
Procedure: as §4

[32] = system: multidrug-resistant HIV-1 clinical isolate, patient 17; experiment: microbe, parasite or virus in culture; type: cell-based; details: Human immunodeficiency virus 1; Patient Isolate 17
Procedure: as §4

[33] = system: multidrug-resistant HIV-1 clinical isolate, patient 14; experiment: microbe, parasite or virus in culture; type: cell-based; details: Human immunodeficiency virus 1; Patient Isolate 14
Procedure: as §4

[34] = system: multidrug-resistant HIV-1 clinical isolate, patient 35; experiment: microbe, parasite or virus in culture; type: cell-based; details: Human immunodeficiency virus 1; Patient Isolate 35
Procedure: as §4

[35] = system: multidrug-resistant HIV-1 clinical isolate, patient 29; experiment: microbe, parasite or virus in culture; type: cell-based; details: Human immunodeficiency virus 1; Patient Isolate 29
Procedure: as §4

[36] = system: multidrug-resistant HIV-1 clinical isolate, patient 12; experiment: microbe, parasite or virus in culture; type: cell-based; details: Human immunodeficiency virus 1; Patient Isolate 12
Procedure: as §4

[37] = system: multidrug-resistant HIV-1 clinical isolate, patient 18; experiment: microbe, parasite or virus in culture; type: cell-based; details: Human immunodeficiency virus 1; Patient Isolate 18
Procedure: as §4

[38] = system: multidrug-resistant HIV-1 clinical isolate, patient 30; experiment: microbe, parasite or virus in culture; type: cell-based; details: Human immunodeficiency virus 1; Patient Isolate 30
Procedure: as §4

[39] = system: multidrug-resistant HIV-1 clinical isolate, patient 21; experiment: microbe, parasite or virus in culture; type: cell-based; details: Human immunodeficiency virus 1; Patient Isolate 21
Procedure: as §4

[40] = Human immunodeficiency virus 1, SI, PHA-PBMC, p24 (Table 3)
[41] = Human immunodeficiency virus 1, HIV-1BAL, NSI, PHA-PBMC, p24 (Table 3)

COc1ccc(S(=O)(=O)N(CC(C)C)CC(O)C(Cc2ccccc2)NC(=O)OC2COC3OCCC23)cc1 (centres unmarked)
IC50 [1]: 1.4 nM

CC(C)CN(C[C@@H](O)[C@H](Cc1ccccc1)NC(=O)O[C@H]1CO[C@H]2OCC[C@H]21)S(=O)(=O)c1ccc(CN)cc1 [Compound 35]
IC50 ([2]; PBMC/p24, day 7 (Table 8)): 20 nM
IC50 ([3]; HIV-1Ba-L, PBMC/p24, day 7 (Table 8)): 13 nM
KI-wt/KI-mut [4]: 1
Ki [4]: 0.081 nM
IC50 [5]: 28 nM

CC(C)(C)NC(=O)[C@@H]1CN(Cc2cccnc2)CCN1C[C@@H](O)C[C@@H](Cc1ccccc1)C(=O)N[C@H]1c2ccccc2C[C@H]1O [IDV, Indinavir]
IC50 [2, 40]: 19 nM
IC50 [6]: 460 nM
IC50 [7]: 13 nM
IC50 [8]: > 1000 nM
IC50 [9]: > 1000 nM
IC50 [10]: 240 nM
IC50 [11]: 240 nM
IC50 [12]: 370 nM
IC50 [13]: > 1000 nM
IC50 [14]: 800 nM
IC50 [15]: 20 nM
IC50 [16]: 173 nM
IC50 [17]: 595 nM
IC50 [3, 41]: 5.6 nM
IC50 [18]: 251 nM
IC50 [19]: 784 nM
IC50 [20]: 1090 nM
IC50 [21]: > 1250 nM
IC50 [22]: > 1250 nM
IC50 [23]: 223 nM
IC50 [24]: 133 nM
IC50 [25]: 461 nM
IC50 [26]: > 1250 nM
IC50 [27]: 12 nM
IC50 [28]: 384 nM
IC50 [29]: 265 nM
IC50 [30]: 591 nM
IC50 [31]: 1040 nM
IC50 [32]: 502 nM
IC50 [33]: 89 nM
IC50 [34]: 509 nM
IC50 [35]: 569 nM
IC50 [36]: > 1250 nM
IC50 [37]: 369 nM
IC50 [38]: 270 nM

CC(C)(C)NC(=O)[C@@H]1C[C@@H]2CCCC[C@@H]2CN1C[C@@H](O)[C@H](Cc1ccccc1)NC(=O)[C@H](CC(N)=O)NC(=O)c1ccc2ccccc2n1 [SAQ, Saquinavir]
IC50 [2, 40]: 5.4 nM
IC50 [6]: 36 nM
IC50 [7]: 10 nM
IC50 [8]: 290 nM
IC50 [9]: 120 nM
IC50 [10]: 35 nM
IC50 [11]: 33 nM
IC50 [12]: 190 nM
IC50 [13]: 9 nM
IC50 [14]: 240 nM
IC50 [15]: 7 nM
IC50 [16]: 3 nM
IC50 [17]: 63 nM
IC50 [3, 41]: 3.7 nM
IC50 [18]: 74 nM
IC50 [19]: 55 nM
IC50 [20]: > 312 nM
IC50 [21]: > 312 nM
IC50 [22]: > 312 nM
IC50 [23]: > 312 nM
IC50 [24]: 59 nM
IC50 [25]: 8 nM
IC50 [26]: > 312 nM
IC50 [27]: 1 nM
IC50 [28]: > 312 nM
IC50 [39]: 210 nM
IC50 [29]: > 312 nM
IC50 [30]: 32 nM
IC50 [31]: > 312 nM
IC50 [32]: 107 nM
IC50 [33]: 40 nM
IC50 [34]: 61.6 nM
IC50 [35]: 50 nM
IC50 [36]: > 312 nM
IC50 [37]: 39 nM
IC50 [38]: 191 nM
